Laboratory results taken from ChEMBL document CHEMBL1759879, “A new quinoline derivative with cytotoxic activity from Streptomyces sp. neau50” (Bioorg Med Chem Lett, 2011).
In brackets after ≈: the same amount, converted by molar mass. Activity calls are given as the source filed them. The calls are words filed in the database; no cut-off is given here.

Key:
Candida albicans = assay: Antimicrobial activity against Candida albicans at 10 uM by agar diffusion method; assay type: functional, organism-based
[1] = tested on: Staphylococcus epidermidis; assay: Antimicrobial activity against Staphylococcus epidermidis at 10 uM by agar diffusion method; assay type: functional, organism-based
A549 = assay: Cytotoxicity against human A549 cells after 72 hrs colorimetric assay; assay type: functional, cell-based; settings: A549, 72 h

COC(=O)c1cc(C)nc2c(CCC(C)(C)OC)cccc12
Activity (Candida albicans): inactive | Activity [1]: inactive | IC50 (A549): 29.3 µg/mL (≈ 97.2 µM)
